According to article PMC6273125, “Antioxidant Activity of 3-[N-(Acylhydrazono)ethyl]-4-hydroxy-coumarins” (Molecules, 2016):
Entries after “also recorded” stand apart in the source; their conditions may differ.

What was measured:
[1] = Reducing activity of the DPPH stable free radical (RA%); settings: DPPH 0.05 mM in ethanol; for RA%, 50 μM, 20 min / RA%, 50 μM, 60 min: compound 50 μM; for RA%, 100 µM, 20 min: compound 100 µM; for RA%, 100 μM, 60 min: compound 100 μM
Excerpt: It is well known that the interaction of the synthesized 3-acetyl-4-hydroxycoumarin N-acylhydrazones 2 with the stable free radical DPPH indicates their radical scavenging ability in an iron-free system. […] Considering the antioxidant activity of 3-acetyl-4-hydroxy coumarin (1) it seems to be higher than the hydrazone derivatives 2a–l in both concentrations and in relation with the time and it is correlated with the presence of 3-acetyl and 4-hydroxy groups in the lactone ring and the possibility of tautomers (A–D) formation as shown in Scheme 2. It has been reported that 3-acetyl-4-hydroxycoumarin mainly exists in endocyclic enol form (B) in polar solvents (methanol, ethanol) and it is well known that enols show antioxidant activity e.g., it has been reported that enolic and phenolic hydroxyl groups is beneficial for curcumin to protect erythrocytes against hemin-induced hemolysis and to protect DNA against AAPH-induced oxidation. The lower results of hydrazones 2a–l, are correlated with their stereochemistry which influence their interaction with DPPH.
To an ethanolic solution of DPPH (0.05 mM) in absolute ethanol the new coumarin derivatives dissolved in DMSO were added (final concentration 50 and 100 µM). The mixture was shaken vigorously and allowed to stand for 20 min or 60 min; absorbance at 517 nm was determined spectrophotometrically against the blank and the percentage of reducing activity (RA) was calculated by the formula: RA% = [(A0 − A1)/A0] × 100 where A0 is the absorbance of blank and A1 is the absorbance of the reaction mixture.

[2] = Inhibition of linoleic acid lipid peroxidation induced by AAPH; settings: pH 7.4, 37 °C
Excerpt: AAPH induced linoleic acid oxidation is based on the inhibition of lipid oxidation and provides a measure of how efficiently antioxidants protect against lipid oxidation in vitro. Oxidation of exogenous linoleic acid by a thermal free radical producer (AAPH) is followed by UV spectrophotometry in a highly-diluted sample [36, 42].
Production of conjugated diene hydroperoxide by oxidation of linoleic acid in an aqueous dispersion is monitored at 234 nm. 2,2′-Azobis(2-amidinopropane) dihydrochloride (AAPH) is used as a free radical initiator. Ten microliters of the 16 mM linoleic acid sodium salt solution was added to the UV cuvette containing 930 µL of […] phosphate buffer, pH 7.4 prethermostated at 37 °C. The oxidation reaction was initiated at 37 °C under air by the addition of 50 μL of 40 mM AAPH solution. Oxidation was carried out in the presence of aliquots (10 μL) of the tested coumarins. In the assay without antioxidant, lipid peroxidation was measured in the presence of the same level of DMSO. The rate of oxidation at 37 °C was monitored by recording the increase in absorption at 234 nm caused by conjugated diene hydroperoxides.

[3] = target: T1, soybean lipoxygenase (LOX) (Glycine max, UniProt P08170); experiment: In vitro inhibition of soybean lipoxygenase, UV-absorbance-based enzyme assay; assay type: biochemical; settings: for LOX IC50 / IC50: soybean lipoxygenase, sodium linoleate, Tris buffer pH 9
T1 construct: purchased Sigma Chemical, Co. (St. Louis, MO, USA)
T1 sequence (P08170 1-839): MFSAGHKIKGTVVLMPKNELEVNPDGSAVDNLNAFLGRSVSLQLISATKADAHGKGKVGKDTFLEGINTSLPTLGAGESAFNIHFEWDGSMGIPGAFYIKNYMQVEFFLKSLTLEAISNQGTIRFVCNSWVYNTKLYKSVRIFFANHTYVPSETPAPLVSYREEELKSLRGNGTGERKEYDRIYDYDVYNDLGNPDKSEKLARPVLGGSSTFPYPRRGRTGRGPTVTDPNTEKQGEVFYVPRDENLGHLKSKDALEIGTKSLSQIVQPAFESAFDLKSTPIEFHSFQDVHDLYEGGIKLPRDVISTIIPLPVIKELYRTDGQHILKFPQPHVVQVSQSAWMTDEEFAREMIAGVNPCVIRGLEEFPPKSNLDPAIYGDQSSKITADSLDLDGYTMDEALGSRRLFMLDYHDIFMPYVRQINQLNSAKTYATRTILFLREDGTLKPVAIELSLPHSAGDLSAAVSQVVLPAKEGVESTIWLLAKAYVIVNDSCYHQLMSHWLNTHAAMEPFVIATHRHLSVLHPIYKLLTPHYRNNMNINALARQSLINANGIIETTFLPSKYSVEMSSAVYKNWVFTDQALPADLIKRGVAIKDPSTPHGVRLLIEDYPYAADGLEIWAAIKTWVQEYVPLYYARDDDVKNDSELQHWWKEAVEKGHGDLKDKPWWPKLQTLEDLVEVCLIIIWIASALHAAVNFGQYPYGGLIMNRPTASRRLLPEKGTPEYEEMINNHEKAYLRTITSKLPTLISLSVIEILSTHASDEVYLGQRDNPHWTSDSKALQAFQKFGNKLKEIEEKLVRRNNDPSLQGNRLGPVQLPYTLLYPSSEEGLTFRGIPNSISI
Experimental: The tested compounds dissolved in DMSO were incubated at room temperature with sodium linoleate (100 µL) and 200 µL of enzyme solution (1/9 × 10^−4 w/v in saline) in Tris buffer pH 9. The conversion of sodium linoleate to 13-hydroperoxylinoleic acid at 234 nm was recorded and compared with the appropriate standard inhibitor.

[4] = parameters: method as in PMID 1322662; settings: cited from earlier work

| SMILES | RA%, 50 μM, 20 min [1] | RA%, 50 μM, 60 min [1] | RA%, 100 µM, 20 min [1] | RA%, 100 μM, 60 min [1] | LP 60 s, 100 μM (% inhibition of LP induced by AAPH) [2] | LOX IC50 [3] | melting point | IC50 [3] | antioxidant activity [4] | inhibition at 100 µM [3] | LOX % inhibition ([3]; 100 µM, IC50 not determined) |
| --- | --- | --- | --- | --- | --- | --- | --- | --- | --- | --- | --- |
| CC(=NNC(=O)c1ccc(C)cc1)c1c(O)c2ccccc2oc1=O [2d, 3-{N-[(4′-Methylbenzoyl)hydrazono]ethyl}-4-hydroxycoumarin] | 7 ± 0.3% | 10 ± 0.2% | 27 ± 2.2% | 27 ± 1.4% | 100 ± 3.2% | do not seem to present any activity; also recorded: No ^c | 251 to 252 °C | – | – | – | – |
| CC(=NNC(=O)c1ccccc1O)c1c(O)c2ccccc2oc1=O [2i, 3-{N-[(2′-Hydroxybenzoyl)hydrazono]ethyl}-4-hydroxycoumarin] | 8 ± 0.5% | 10 ± 0.1% | 27 ± 0.2% | 29 ± 1.7% | 100 ± 8.2% | – | 271 to 272 °C | 49.5 ± 1.2 µM | – | – | – |
| O=c1cc(O)c2ccccc2o1 [4-hydroxy coumarin] | – | – | – | – | – | – | – | – | not found to present any antioxidant activity | – | – |
| CC(=NNC(=O)c1ccc(N)cc1)c1c(O)c2ccccc2oc1=O [2g, 3-{N-[(4′-Aminobenzoyl)hydrazono]ethyl}-4-hydroxycoumarin] | 9 ± 0.3% | 16 ± 0.6% | 27 ± 0.8% | 31 ± 1.4% | 95 ± 7.2% | – | 256 to 257 °C | 46.5 ± 2.3 µM | – | – | – |
| CC(=NNC(=O)c1ccco1)c1c(O)c2ccccc2oc1=O [2j, 3-{N-[(2′-Furoyl)hydrazono]ethyl}-4-hydroxycoumarin] | 4 ± 0.2% | 8 ± 0.3% | 25 ± 1.8% | 27 ± 0.8% | 95 ± 4.1% | – | 254.5 to 255 °C | 90 ± 5.1 µM | – | – | – |
| CC(=NNC(=O)c1ccccc1[N+](=O)[O-])c1c(O)c2ccccc2oc1=O [2l, 3-{N-[(2′-Nitrobenzoyl)hydrazono]ethyl}-4-hydroxycoumarin] | 6 ± 0.3% | 10 ± 0.2% | 27 ± 2.2% | 29 ± 1.0% | 95 ± 6.2% | – | 219 °C | 35 ± 0.2 µM | – | – | – |
| CC(=NNC(=O)c1ccc(O)cc1)c1c(O)c2ccccc2oc1=O [2f, 3-{N-[(4′-Hydroxybenzoyl)hydrazono]ethyl}-4-hydroxycoumarin] | 10 ± 0.5% | 14 ± 1.2% | 24 ± 2.2% | 26 ± 1.2% | 98 ± 2.9% | – | 287 to 288 °C | 70 ± 4.3 µM | – | – | – |
| CC(=NNC(=O)Cc1ccccc1)c1c(O)c2ccccc2oc1=O [2b, 3-[N-(Phenylacetylhydrazono)ethyl]-4-hydroxycoumarin] | 4 ± 0.2% | 7 ± 0.1% | 25 ± 2.0% | 29 ± 1.1% | 100 ± 5.5% | – | 216 to 217 °C | 40 ± 0.5 µM | – | – | – |
| CC(=NNC(=O)c1ccncc1)c1c(O)c2ccccc2oc1=O [2h, 3-[N-(Isonicotinoylhydrazono)ethyl]-4-hydroxycoumarin] | 5 ± 0.1% | 8 ± 0.2% | 27 ± 1.5% | 31 ± 1.6% | 99 ± 3.7% | do not seem to present any activity; also recorded: No ^c | 274 °C | – | – | – | – |
| CC(=NNC(=O)c1cccs1)c1c(O)c2ccccc2oc1=O [2k, 3-{N-[(2′-Thienylcarbonyl)hydrazono]ethyl}-4-hydroxycoumarin] | 7 ± 0.1% | 9 ± 0.2% | 25 ± 2.1% | 30 ± 2.2% | 98 ± 3.9% | – | 228 to 228.5 °C | 43.5 ± 3.2 µM | – | – | – |
| CC(Cc1ccc(O)c(O)c1)C(C)Cc1ccc(O)c(O)c1 (centres unmarked) [NDGA, nordihydroguairetic acid, reference compound] | 84 ± 2.0% | 83 ± 3.3% | 81 ± 5.2% | 83 ± 4.7% | – | – | – | – | – | – | – |
| CC(=NNC(=O)c1ccc(Cl)cc1)c1c(O)c2ccccc2oc1=O [2e, 3-{N-[(4′-Chlorobenzoyl)hydrazono]ethyl}-4-hydroxycoumarin] | 7 ± 0.2% | 10 ± 0.5% | 27 ± 0.9% | 29 ± 0.8% | 94 ± 4.8% | – | 248 to 248.5 °C | 55 ± 2.1 µM | – | – | – |
| CC(=O)c1c(O)c2ccccc2oc1=O [compound 1, 3-Acetyl-4-hydroxycoumarin] | 29 ± 0.5% | 31± 0.3% | 36± 1.3% | 36 ± 0.8% | – | – | – | – | – | 44% | low inhibitory activity |
| Cc1c(C)c2c(c(C)c1O)CCC(C)(C(=O)O)O2 (centres unmarked) [TROLOX, trolox, reference compound] | – | – | – | – | 63 ± 0.2% | – | – | – | – | – | – |
| CC(=O)NN=C(C)c1c(O)c2ccccc2oc1=O [2a, 3-[N-(Acetylhydrazono)ethyl]-4-hydroxycoumarin] | 5 ± 0.2% | 7 ± 0.3% | 23 ± 3.0% | 24 ± 2.0% | 100 ± 9.8% | – | 248 to 249 °C | 62.5 ± 2.3 µM | – | – | – |
| CC(=NNC(=O)c1ccccc1)c1c(O)c2ccccc2oc1=O [2c, 3-[N-(Benzoylhydrazono)ethyl]-4-hydroxycoumarin] | 5 ± 0.1% | 7 ± 0.4% | 25 ± 1.2% | 30 ± 2.8% | 98 ± 5.4% | – | – | 58 ± 2.7 µM | – | – | – |
